Experimental data: paper PMC5717064, “Alternative substrate-bound conformation of bacterial solute-binding protein involved in the import of mammalian host glycosaminoglycans” (Scientific Reports, 2017)

How the values were obtained:
[1] = target: T1, Smon0121-Smon0122/Smon0120-Smon0120 (Streptobacillus moniliformis, UniProt D1AWD7); conditions: in presence of Smon0123 and disaccharide ligands
T1 construct: gene Smon_0120

Smon0123 (full-length) = target: T2, Smon0123 (full-length) (Streptobacillus moniliformis, UniProt D1AWE0); assay: intrinsic tryptophan fluorescence titration; format: binding; conditions: 0.1 μM protein, 0-20 μM ligand, excitation 280 nm
T2 construct: gene Smon_0123; full-length protein, expressed in E. coli, purified by TALON, Resource Q and Superdex 200; tag not described; about 57 kDa, monomer
T2 sequence (D1AWE0 entry or part of it): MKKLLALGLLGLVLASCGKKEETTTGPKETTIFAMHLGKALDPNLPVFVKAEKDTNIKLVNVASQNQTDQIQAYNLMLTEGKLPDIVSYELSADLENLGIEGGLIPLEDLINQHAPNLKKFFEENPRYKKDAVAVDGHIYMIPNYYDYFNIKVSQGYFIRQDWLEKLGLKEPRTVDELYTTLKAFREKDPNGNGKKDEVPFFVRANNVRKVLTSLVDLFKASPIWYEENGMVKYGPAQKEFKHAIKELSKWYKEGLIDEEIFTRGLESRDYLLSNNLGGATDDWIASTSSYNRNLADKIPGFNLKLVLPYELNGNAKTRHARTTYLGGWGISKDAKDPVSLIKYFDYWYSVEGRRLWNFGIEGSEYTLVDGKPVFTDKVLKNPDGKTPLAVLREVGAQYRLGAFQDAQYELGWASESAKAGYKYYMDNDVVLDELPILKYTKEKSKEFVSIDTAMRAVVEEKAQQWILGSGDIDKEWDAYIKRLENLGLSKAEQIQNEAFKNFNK

Smon0123 (N-18/C-5) [2] = target: T3, Smon0123 (N-18/C-5) (Streptobacillus moniliformis, UniProt D1AWE0); assay: X-ray crystallography, […] Å; format: binding; conditions: pH 7.5, 20 °C, calcium bound; cleft between N and C domains
T3 construct: gene Smon_0123; N-terminal 18 and C-terminal 5 residues truncated (starts Met1-Lys19), expressed in E. coli, purified by DEAE and Superdex 200
T3 sequence (D1AWE0 entry or part of it): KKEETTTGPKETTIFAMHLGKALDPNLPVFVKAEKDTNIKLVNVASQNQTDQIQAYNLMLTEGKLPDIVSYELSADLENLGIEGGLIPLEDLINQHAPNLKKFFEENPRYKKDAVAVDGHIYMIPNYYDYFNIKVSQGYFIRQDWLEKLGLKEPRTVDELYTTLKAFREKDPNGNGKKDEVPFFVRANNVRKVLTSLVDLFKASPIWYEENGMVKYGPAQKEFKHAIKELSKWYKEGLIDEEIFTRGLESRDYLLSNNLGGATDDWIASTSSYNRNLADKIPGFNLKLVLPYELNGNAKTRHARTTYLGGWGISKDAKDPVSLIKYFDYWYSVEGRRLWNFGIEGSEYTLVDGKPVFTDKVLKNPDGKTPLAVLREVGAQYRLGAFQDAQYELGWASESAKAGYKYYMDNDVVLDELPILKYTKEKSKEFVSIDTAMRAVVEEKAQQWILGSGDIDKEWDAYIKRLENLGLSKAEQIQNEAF

Smon0123 (N-18/C-5) [3] = target: T3, Smon0123 (N-18/C-5); assay: X-ray crystallography, […] Å; format: binding; conditions: pH 7.5; crystallised with CΔ4S6S, CΔ4S found in the cleft (contaminant or desulfation); construct printed only as Smon0123; not deposited

T1 sequence (D1AWD7 entry or part of it): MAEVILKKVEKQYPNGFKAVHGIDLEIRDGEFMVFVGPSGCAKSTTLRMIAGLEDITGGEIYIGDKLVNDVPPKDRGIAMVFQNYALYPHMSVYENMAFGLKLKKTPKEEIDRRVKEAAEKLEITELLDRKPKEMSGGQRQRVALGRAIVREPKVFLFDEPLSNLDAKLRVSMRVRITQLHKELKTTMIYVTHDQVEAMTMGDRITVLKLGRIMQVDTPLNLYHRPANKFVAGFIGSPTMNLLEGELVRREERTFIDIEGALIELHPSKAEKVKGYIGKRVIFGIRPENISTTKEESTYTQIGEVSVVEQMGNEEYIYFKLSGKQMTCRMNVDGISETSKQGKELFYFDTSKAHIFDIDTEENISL
T1 sequence (D1AWD8 entry or part of it, further chain): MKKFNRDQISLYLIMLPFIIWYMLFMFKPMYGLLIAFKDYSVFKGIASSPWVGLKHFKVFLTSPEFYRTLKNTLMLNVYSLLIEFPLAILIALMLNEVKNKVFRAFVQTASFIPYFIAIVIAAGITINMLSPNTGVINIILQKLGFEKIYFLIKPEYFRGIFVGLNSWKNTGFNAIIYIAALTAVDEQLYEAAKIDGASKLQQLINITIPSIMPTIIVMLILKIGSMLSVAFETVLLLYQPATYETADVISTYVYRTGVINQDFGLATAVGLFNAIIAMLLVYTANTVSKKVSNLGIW
T1 sequence (D1AWD9 entry or part of it, further chain): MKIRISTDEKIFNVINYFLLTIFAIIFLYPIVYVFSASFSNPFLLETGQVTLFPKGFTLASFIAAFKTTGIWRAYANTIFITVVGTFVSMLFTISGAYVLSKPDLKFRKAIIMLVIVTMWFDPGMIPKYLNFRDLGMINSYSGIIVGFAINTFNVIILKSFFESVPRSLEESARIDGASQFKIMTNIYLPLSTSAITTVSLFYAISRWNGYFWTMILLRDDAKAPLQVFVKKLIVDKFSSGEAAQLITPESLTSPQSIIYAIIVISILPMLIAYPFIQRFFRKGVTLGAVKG

Compound: Nc1ncnc2c1ncn2[C@@H]1O[C@H](COP(=O)(O)OP(=O)(O)OP(=O)(O)O)[C@@H](O)[C@H]1O [ATP]
- molybdenum blue phosphate release, proteoliposomes [1]: phosphate ion concentration generated through ATP hydrolysis in the presence of Smon0123 and ligands

Compound: CC(=O)N[C@H]1C(O)O[C@H](COS(=O)(=O)O)[C@H](OS(=O)(=O)O)[C@@H]1O[C@@H]1OC(C(=O)O)=C[C@H](O)[C@H]1O (stereo partly shown) [CΔ4S6S]
- Kd (Smon0123 (full-length)): 3.86 ± 0.243 µM
- X-ray crystallography, 1.95 Å (Smon0123 (N-18/C-5) [2]): The coordinates and structure factors of Smon0123/CΔ4S6S have been deposited in the Protein Data Bank

Compound: CC(=O)N[C@H]1C(O)O[C@H](CO)[C@H](OS(=O)(=O)O)[C@@H]1O[C@@H]1OC(C(=O)O)=C[C@H](O)[C@H]1O (stereo partly shown) [CΔ4S]
- X-ray crystallography, 2.50 Å (Smon0123 (N-18/C-5) [3]): the protein was found to interact with C∆4S but not C∆4S6S in the cleft
